Patent US9247750B2, “Polyenylcyclopropanecarboxylic esters with high insecticidal activity” (Endura S.P.A., priority 2007, dated 2016)

What was measured:
Format in all cases: in vivo
Aedes aegypti [1] = assay: Insecticide effectiveness in the vapour phase against mosquitoes, impregnated paper unit in 20 m^3 room (Example 9); details: 5 mg/unit; for % mortality 24 h: 24th hour from start of test; for % Knock-down 8 h: at end of 8th hour; for Knock-down time KT10 / Knock-down time KT50 / Knock-down time KT90: average of 3 cages
Procedure: (§1) Test units consisting of a paper support 20 cm×10 cm in size were impregnated with the compound of examples 3, 7 and 8 and, for comparative purposes, with the reference compounds transfluthrin and metofluthrin, at an amount of 5.00 mg/unit for each compound (pure). Using a common laboratory stand, the test unit was placed at a height of about 30 cm from the ground along one side of a 20 m^3 room (L 3.00 m×D 2.49 m×H 2.69 m). In order to homogenize the insecticidal air within the room, a small electric fan was placed on the floor diagonal to the surface of the unit, in the nearest corner at a distance of about 50 cm from the unit. Three metal cages (L 8.4 cm×Ø 8.0 cm×mesh 1.0 mm) for every mosquito species, each containing 20 3-4 day old individuals of mixed sex, were placed along the other three sides of the room, at a height of 1.80 m from the ground and at a distance of 0.45 m from the respective walls. During the test the room was kept closed and temperature and humidity were controlled (T 23-26° C., RH 49-61%). The fan was switched on and left on for 8 continuous hours. The times needed to reach 10%, 50% and 90% insect knock-down (KT10, KT50 and KT90, respectively) were recorded.
(§2) Every 2 hours and up to the 6th hour after the fan was switched on, new cages were introduced containing insects (set of 3 cages for each species).
(§3) At the end of the 8th hour, the percentage of insects knocked down in all the cages was determined, then the insects were removed from the room and transferred into an uncontaminated atmosphere within closed containers containing a sugary solution. The percentage mortality was recorded at the 24th hour from the start of the test.
(§4) The results obtained are summarized in tables 1 and 2 and the data are averages for the 3 cages.

Culex quinquefasciatus [2] = assay: as above; details: 5 mg/unit; for % mortality 24 h: 24th hour from start of test; for % Knock-down 8 h: at end of 8th hour; for Knock-down time KT10 / Knock-down time KT50 / Knock-down time KT90: average of 3 cages
Procedure: as §1, §2, §3, §4

Aedes aegypti [3] = assay: Insecticide effectiveness in the vapour phase against mosquitoes, impregnated paper unit in 20 m^3 room (Example 5); details: 5 mg/unit; for % mortality 24 h: 24th hour from start of test; for % Knock-down 8 h: at end of 8th hour; for Knock-down time KT10 / Knock-down time KT50 / Knock-down time KT90: average of 3 cages
Procedure: (§5) Test units consisting of a paper support 20 cm×10 cm in size were impregnated with the compound of example 3 and, for comparative purposes, with the reference compounds transfluthrin and metofluthrin, at an amount of 5.00 mg/unit for each compound (pure).
(§6) Using a common laboratory stand, the test unit was placed at a height of about 30 cm from the ground along one side of a 20 m^3 room (L 3.00 m×D 2.49 m×H 2.69 m). In order to homogenize the insecticidal air within the room, a small electric fan was placed on the floor diagonal to the surface of the unit, in the is nearest corner at a distance of about 50 cm from the unit. Three metal cages (L 8.4 cm×Ø 8.0 cm×mesh 1.0 mm) for every mosquito species, each containing 20 3-4 day old individuals of mixed sex, were placed along the other three sides of the room, at a height of 1.80 m from the ground and at a distance of 0.45 m from the respective walls. During the test the room was kept closed and temperature and humidity were controlled (T 23-26° C., RH 49-61%).
(§7) The fan was switched on and left on for 8 continuous hours. The times needed to reach 10%, 50% and 90% insect knock-down (KT10, KT50 and KT90, respectively) were recorded.
as §2, §3, §4

Culex quinquefasciatus [4] = assay: as above; details: 5 mg/unit; for % mortality 24 h: 24th hour from start of test; for % Knock-down 8 h: at end of 8th hour; for Knock-down time KT10 / Knock-down time KT50 / Knock-down time KT90: average of 3 cages
Procedure: as §5, §6, §7, §2, §3, §4

Blattella germanica = assay: Effectiveness of residual insecticide on surfaces (glazed tiles) against cockroaches (Example 6); details: for Time to reach 100% knock-down followed by death: 50 mg/m^2 on glazed tiles
Procedure: Solutions of the compound of example 3 in acetone and, for comparison, of the reference compounds Transfluthrin and Metofluthrin were applied from a distance of 12 cm onto glazed tiles (Ostara model, 15×15 cm=225 cm^2) by means of a suitable glass sprayer, so as to obtain an applied amount of pure compound equal to 50 mg/m^2. After treatment the tiles were transferred to and maintained in a closed test room at controlled temperature and humidity (24-25° C., RH 50-60%). Glass rings (H 5.5 cm×Ø 9.5 cm), with their internal surface treated with talc, and each containing 5 cockroaches, were positioned at the centre of the tiles for each of the assessment times of 24 hours, 3, 7, 10 and 14 days following treatment. For each assessment day, the insects were maintained on the surface for 24 hours and the time (hours, minutes) necessary to attain 100% knock-down followed by death, or percentage knock-down at the end of 24 hours, were recorded.

C=CC=C[C@@H]1[C@@H](C(=O)OCc2c(F)c(F)c(COC)c(F)c2F)C1(C)C (mixture of isomers) [Example 8, 2,3,5,6-tetrafluoro-4-methoxymethyl benzyl(1R,3R)-3-((E/Z)-Buta-1,3-dienyl)-2,2-dimethylcyclopropane-1-carboxylate]
% mortality 24 h (Aedes aegypti [1]; insect exposure after 0 hours): 100%
% Knock-down 8 h (Aedes aegypti [1]; insect exposure after 0 hours): 100%
Knock-down time KT10 (Aedes aegypti [1]; insect exposure after 0 hours): 22 min
Knock-down time KT50 (Aedes aegypti [1]; insect exposure after 0 hours): 31 min
Knock-down time KT90 (Aedes aegypti [1]; insect exposure after 0 hours): 40 min
% mortality 24 h (Aedes aegypti [1]; insect exposure after 2 hours): 100%
% Knock-down 8 h (Aedes aegypti [1]; insect exposure after 2 hours): 100%
Knock-down time KT10 (Aedes aegypti [1]; insect exposure after 2 hours): 12 min
Knock-down time KT50 (Aedes aegypti [1]; insect exposure after 2 hours): 29 min
Knock-down time KT90 (Aedes aegypti [1]; insect exposure after 2 hours): 41 min
% mortality 24 h (Aedes aegypti [1]; insect exposure after 4 hours): 100%
% Knock-down 8 h (Aedes aegypti [1]; insect exposure after 4 hours): 100%
Knock-down time KT10 (Aedes aegypti [1]; insect exposure after 4 hours): 18 min
Knock-down time KT50 (Aedes aegypti [1]; insect exposure after 4 hours): 32 min
Knock-down time KT90 (Aedes aegypti [1]; insect exposure after 4 hours): 50 min
% mortality 24 h (Culex quinquefasciatus [2]; insect exposure after 0 hours): 83%
% Knock-down 8 h (Culex quinquefasciatus [2]; insect exposure after 0 hours): 100%
Knock-down time KT10 (Culex quinquefasciatus [2]; insect exposure after 0 hours): 35 min
Knock-down time KT50 (Culex quinquefasciatus [2]; insect exposure after 0 hours): 44 min
Knock-down time KT90 (Culex quinquefasciatus [2]; insect exposure after 0 hours): 70 min
% mortality 24 h (Culex quinquefasciatus [2]; insect exposure after 2 hours): 70%
% Knock-down 8 h (Culex quinquefasciatus [2]; insect exposure after 2 hours): 100%
Knock-down time KT10 (Culex quinquefasciatus [2]; insect exposure after 2 hours): 39 min
Knock-down time KT50 (Culex quinquefasciatus [2]; insect exposure after 2 hours): 50 min
Knock-down time KT90 (Culex quinquefasciatus [2]; insect exposure after 2 hours): 68 min
% mortality 24 h (Culex quinquefasciatus [2]; insect exposure after 4 hours): 61%
% Knock-down 8 h (Culex quinquefasciatus [2]; insect exposure after 4 hours): 100%
Knock-down time KT10 (Culex quinquefasciatus [2]; insect exposure after 4 hours): 39 min
Knock-down time KT50 (Culex quinquefasciatus [2]; insect exposure after 4 hours): 53 min
Knock-down time KT90 (Culex quinquefasciatus [2]; insect exposure after 4 hours): 66 min

C=CC=C[C@@H]1[C@@H](C(=O)OCc2c(F)c(F)cc(F)c2F)C1(C)C (mixture of isomers) [Example 3, 2,3,5,6-tetrafluorobenzyl(1R,3R)-3-((E/Z)-Buta-1,3-dienyl)-2,2-dimethylcyclopropane-1-carboxylate]
% mortality 24 h (Aedes aegypti [3]; insect exposure after 0 hours): 100%
% Knock-down 8 h (Aedes aegypti [3]; insect exposure after 0 hours): 100%
Knock-down time KT10 (Aedes aegypti [3]; insect exposure after 0 hours): 16 min
Knock-down time KT50 (Aedes aegypti [3]; insect exposure after 0 hours): 19 min
Knock-down time KT90 (Aedes aegypti [3]; insect exposure after 0 hours): 25 min
% mortality 24 h (Aedes aegypti [3]; insect exposure after 2 hours): 100%
% Knock-down 8 h (Aedes aegypti [3]; insect exposure after 2 hours): 100%
Knock-down time KT10 (Aedes aegypti [3]; insect exposure after 2 hours): 4 min
Knock-down time KT50 (Aedes aegypti [3]; insect exposure after 2 hours): 6 min
Knock-down time KT90 (Aedes aegypti [3]; insect exposure after 2 hours): 9 min
% mortality 24 h (Aedes aegypti [3]; insect exposure after 4 hours): 100%
% Knock-down 8 h (Aedes aegypti [3]; insect exposure after 4 hours): 100%
Knock-down time KT10 (Aedes aegypti [3]; insect exposure after 4 hours): 4 min
Knock-down time KT50 (Aedes aegypti [3]; insect exposure after 4 hours): 6 min
Knock-down time KT90 (Aedes aegypti [3]; insect exposure after 4 hours): 11 min
% mortality 24 h (Culex quinquefasciatus [4]; insect exposure after 0 hours): 100%
% Knock-down 8 h (Culex quinquefasciatus [4]; insect exposure after 0 hours): 100%
Knock-down time KT10 (Culex quinquefasciatus [4]; insect exposure after 0 hours): 20 min
Knock-down time KT50 (Culex quinquefasciatus [4]; insect exposure after 0 hours): 23 min
Knock-down time KT90 (Culex quinquefasciatus [4]; insect exposure after 0 hours): 31 min
% mortality 24 h (Culex quinquefasciatus [4]; insect exposure after 2 hours): 100%
% Knock-down 8 h (Culex quinquefasciatus [4]; insect exposure after 2 hours): 100%
Knock-down time KT10 (Culex quinquefasciatus [4]; insect exposure after 2 hours): 6 min
Knock-down time KT50 (Culex quinquefasciatus [4]; insect exposure after 2 hours): 8 min
Knock-down time KT90 (Culex quinquefasciatus [4]; insect exposure after 2 hours): 12 min
% mortality 24 h (Culex quinquefasciatus [4]; insect exposure after 4 hours): 100%
% Knock-down 8 h (Culex quinquefasciatus [4]; insect exposure after 4 hours): 100%
Knock-down time KT10 (Culex quinquefasciatus [4]; insect exposure after 4 hours): 6 min
Knock-down time KT50 (Culex quinquefasciatus [4]; insect exposure after 4 hours): 10 min
Knock-down time KT90 (Culex quinquefasciatus [4]; insect exposure after 4 hours): 18 min
Time to reach 100% knock-down followed by death (Blattella germanica; 1 day after treatment): 15′ minutes
Time to reach 100% knock-down followed by death (Blattella germanica; 3 days after treatment): 15′ minutes
Time to reach 100% knock-down followed by death (Blattella germanica; 7 days after treatment): 15′ minutes
Time to reach 100% knock-down followed by death (Blattella germanica; 10 days after treatment): 15′ minutes
Time to reach 100% knock-down followed by death (Blattella germanica; 14 days after treatment): 15′ minutes
time of exposure to total knock-down (100%) (Blattella germanica; table 3): ≤ 15 min
% mortality 24 h (Aedes aegypti [1]; insect exposure after 0 hours): 100%
% Knock-down 8 h (Aedes aegypti [1]; insect exposure after 0 hours): 100%
Knock-down time KT10 (Aedes aegypti [1]; insect exposure after 0 hours): 16 min
Knock-down time KT50 (Aedes aegypti [1]; insect exposure after 0 hours): 20 min
Knock-down time KT90 (Aedes aegypti [1]; insect exposure after 0 hours): 26 min
% mortality 24 h (Aedes aegypti [1]; insect exposure after 2 hours): 100%
% Knock-down 8 h (Aedes aegypti [1]; insect exposure after 2 hours): 100%
Knock-down time KT10 (Aedes aegypti [1]; insect exposure after 2 hours): 5 min
Knock-down time KT50 (Aedes aegypti [1]; insect exposure after 2 hours): 8 min
Knock-down time KT90 (Aedes aegypti [1]; insect exposure after 2 hours): 11 min
% mortality 24 h (Aedes aegypti [1]; insect exposure after 4 hours): 100%
% Knock-down 8 h (Aedes aegypti [1]; insect exposure after 4 hours): 100%
Knock-down time KT10 (Aedes aegypti [1]; insect exposure after 4 hours): 5 min
Knock-down time KT50 (Aedes aegypti [1]; insect exposure after 4 hours): 8 min
Knock-down time KT90 (Aedes aegypti [1]; insect exposure after 4 hours): 12 min
% mortality 24 h (Culex quinquefasciatus [2]; insect exposure after 0 hours): 100%
% Knock-down 8 h (Culex quinquefasciatus [2]; insect exposure after 0 hours): 100%
Knock-down time KT10 (Culex quinquefasciatus [2]; insect exposure after 0 hours): 23 min
Knock-down time KT50 (Culex quinquefasciatus [2]; insect exposure after 0 hours): 28 min
Knock-down time KT90 (Culex quinquefasciatus [2]; insect exposure after 0 hours): 35 min
% mortality 24 h (Culex quinquefasciatus [2]; insect exposure after 2 hours): 100%
% Knock-down 8 h (Culex quinquefasciatus [2]; insect exposure after 2 hours): 100%
Knock-down time KT10 (Culex quinquefasciatus [2]; insect exposure after 2 hours): 7 min
Knock-down time KT50 (Culex quinquefasciatus [2]; insect exposure after 2 hours): 11 min
Knock-down time KT90 (Culex quinquefasciatus [2]; insect exposure after 2 hours): 15 min
% mortality 24 h (Culex quinquefasciatus [2]; insect exposure after 4 hours): 100%
% Knock-down 8 h (Culex quinquefasciatus [2]; insect exposure after 4 hours): 100%
Knock-down time KT10 (Culex quinquefasciatus [2]; insect exposure after 4 hours): 8 min
Knock-down time KT50 (Culex quinquefasciatus [2]; insect exposure after 4 hours): 10 min
Knock-down time KT90 (Culex quinquefasciatus [2]; insect exposure after 4 hours): 14 min

C=CC=C[C@@H]1[C@@H](C(=O)OCc2coc(Cc3ccccc3)c2)C1(C)C (mixture of isomers) [Example 7, (2-benzyl-4-hydroxymethylfuryl) (1R,3R)-3-((E/Z)-Buta-1,3-dienyl)-2,2-dimethylcyclopropane-1-carboxylate]
% mortality 24 h (Aedes aegypti [1]; insect exposure after 0 hours): 79%
% Knock-down 8 h (Aedes aegypti [1]; insect exposure after 0 hours): 5%
% mortality 24 h (Aedes aegypti [1]; insect exposure after 2 hours): 79%
% Knock-down 8 h (Aedes aegypti [1]; insect exposure after 2 hours): 0%
% mortality 24 h (Aedes aegypti [1]; insect exposure after 4 hours): 65%
% Knock-down 8 h (Aedes aegypti [1]; insect exposure after 4 hours): 0%
% mortality 24 h (Culex quinquefasciatus [2]; insect exposure after 0 hours): 70%
% Knock-down 8 h (Culex quinquefasciatus [2]; insect exposure after 0 hours): 8%
% mortality 24 h (Culex quinquefasciatus [2]; insect exposure after 2 hours): 35%
% Knock-down 8 h (Culex quinquefasciatus [2]; insect exposure after 2 hours): 2%
% mortality 24 h (Culex quinquefasciatus [2]; insect exposure after 4 hours): 23%
% Knock-down 8 h (Culex quinquefasciatus [2]; insect exposure after 4 hours): 0%
